In paper PMC8666670, “Malonyl-acyl carrier protein decarboxylase activity promotes fatty acid and cell envelope biosynthesis in Proteobacteria” (The Journal of Biological Chemistry, 2021):

What was measured:
[1] = target: T1, GlmU (Escherichia coli, UniProt P0ACC7); assay: surface plasmon resonance, immobilised His-tagged GlmU, […] equilibrium affinity; assay type: binding; settings: read-out: equilibrium dissociation constant
T1 construct: full-length in pET28a, His-tag kept; expressed in E. coli BL21(DE3)

[2] = target: T2, MadA (Escherichia coli, UniProt P0ADQ2, M17A); assay: malonyl-CoA decarboxylase assay, HPLC; assay type: biochemical; settings: 0.1 M Tris pH 7, 0.2 M NaCl, 37 °C; given for the Mad proteins collectively
T2 construct: gene fabY; full-length GNAT-hot dog protein, dimer, pET28a His-tag, M17A to remove second start site; expressed in E. coli BL21(DE3)

[3] = target: T3, MadB (Shewanella oneidensis, UniProt Q8E989, S54A); assay: malonyl-CoA decarboxylase assay, HPLC; assay type: biochemical; settings: 4 mM malonyl-CoA, 0.1 M Tris pH 7, 0.2 M NaCl, 37 °C
T3 construct: gene yiiD

[4] = target: T4, MadB (Shewanella oneidensis, UniProt Q8E989); assay: malonyl-CoA decarboxylase assay, HPLC; assay type: biochemical; settings: 0.1 M Tris pH 7, 0.2 M NaCl, 37 °C; given for the Mad proteins collectively
T4 construct: gene yiiD
T4 sequence (Q8E989 1-145): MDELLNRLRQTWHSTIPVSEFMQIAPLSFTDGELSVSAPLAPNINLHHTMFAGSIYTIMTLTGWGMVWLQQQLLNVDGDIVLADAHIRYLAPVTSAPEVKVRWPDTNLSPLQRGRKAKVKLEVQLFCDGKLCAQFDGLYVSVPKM

[5] = target: T5, MadB (Shewanella oneidensis, UniProt Q8E989, D79A); assay: malonyl-CoA decarboxylase assay, HPLC; assay type: biochemical; settings: 4 mM malonyl-CoA, 0.1 M Tris pH 7, 0.2 M NaCl, 37 °C
T5 construct: gene yiiD

[6] = target: T6, MadA^C (Escherichia coli, UniProt P0ADQ2); assay: malonyl-CoA decarboxylase assay, HPLC; assay type: biochemical; settings: 0.1 M Tris pH 7, 0.2 M NaCl, 37 °C; given for the Mad proteins collectively
T6 construct: gene fabY; C-terminal hot dog domain, residues 171-329, His6-tag cleaved by thrombin, dimer; expressed in E. coli BL21(DE3)
T6 sequence (P0ADQ2 171-329): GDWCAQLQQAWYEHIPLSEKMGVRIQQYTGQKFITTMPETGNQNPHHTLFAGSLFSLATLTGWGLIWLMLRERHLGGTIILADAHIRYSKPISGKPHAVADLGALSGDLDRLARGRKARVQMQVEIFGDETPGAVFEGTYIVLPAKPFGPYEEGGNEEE

T2 sequence (P0ADQ2 whole entry M17A): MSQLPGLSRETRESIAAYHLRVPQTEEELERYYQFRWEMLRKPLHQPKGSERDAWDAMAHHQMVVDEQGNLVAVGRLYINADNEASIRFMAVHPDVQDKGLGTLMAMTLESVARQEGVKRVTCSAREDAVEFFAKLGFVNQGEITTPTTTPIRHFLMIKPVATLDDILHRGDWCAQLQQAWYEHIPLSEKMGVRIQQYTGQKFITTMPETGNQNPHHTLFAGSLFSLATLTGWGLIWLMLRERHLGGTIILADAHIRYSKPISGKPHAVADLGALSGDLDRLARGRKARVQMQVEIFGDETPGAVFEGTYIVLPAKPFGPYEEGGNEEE
T5 sequence (Q8E989 entry or part of it D79A): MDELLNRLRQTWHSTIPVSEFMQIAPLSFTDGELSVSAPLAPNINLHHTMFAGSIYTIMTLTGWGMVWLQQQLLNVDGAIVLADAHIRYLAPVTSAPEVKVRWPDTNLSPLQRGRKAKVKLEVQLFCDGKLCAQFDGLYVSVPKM
T1 sequence (P0ACC7 whole entry): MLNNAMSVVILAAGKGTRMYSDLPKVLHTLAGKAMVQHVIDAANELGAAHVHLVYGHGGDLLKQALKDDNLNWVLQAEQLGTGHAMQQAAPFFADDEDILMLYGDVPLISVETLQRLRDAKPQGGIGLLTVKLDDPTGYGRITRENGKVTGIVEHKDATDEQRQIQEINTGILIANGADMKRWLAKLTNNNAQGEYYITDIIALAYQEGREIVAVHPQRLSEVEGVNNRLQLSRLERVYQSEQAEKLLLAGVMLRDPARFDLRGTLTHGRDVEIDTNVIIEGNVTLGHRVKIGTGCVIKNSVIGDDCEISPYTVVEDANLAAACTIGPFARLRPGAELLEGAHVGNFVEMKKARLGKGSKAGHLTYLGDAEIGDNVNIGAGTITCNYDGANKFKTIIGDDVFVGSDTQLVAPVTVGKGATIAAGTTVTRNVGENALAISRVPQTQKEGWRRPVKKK
T3 sequence (Q8E989 entry or part of it S54A): as the sequence (Q8E989 entry or part of it D79A) above, with S54A, A79D counted along it

Kd [1] [µM]	Km [2] [mM]	Km [4] [mM]	Km [6] [mM]	SMILES	malonyl-CoA decarboxylase assay, HPLC [3]	malonyl-CoA decarboxylase assay, HPLC [5]
967 ± 48.3				CC(=O)SCCNC(=O)CCNC(=O)[C@H](O)C(C)(C)COP(=O)(O)OP(=O)(O)OC[C@H]1O[C@@H](n2cnc3c(N)ncnc32)[C@H](O)[C@@H]1OP(=O)(O)O [acetyl-CoA]		
	> 5	> 5	> 5	CC(C)(COP(=O)(O)OP(=O)(O)OC[C@H]1O[C@@H](n2cnc3c(N)ncnc32)[C@H](O)[C@@H]1OP(=O)(O)O)[C@@H](O)C(=O)NCCC(=O)NCCSC(=O)CC(=O)O [malonyl-CoA]	The MadB(S54A) and MadB(D79A) mutants had nearly normal malonyl-CoA decarboxylase activity	The MadB(S54A) and MadB(D79A) mutants had nearly normal malonyl-CoA decarboxylase activity
